As a reminder, the EC50 is the concentration needed to bring the measured effect to its halfway point. The low end stands for an effect from little substance, the high end for a need for much substance.

The record followed here is US20240025875A1, “A COMPOUND AS A THYROID HORMONE BETA RECEPTOR AGONIST AND USE THEREOF” (SUNSHINE LAKE PHARMA CO., LTD., priority 2020, published 2024).

One test has as its target T1, TRα (Homo sapiens, UniProt P10827).
T1 construct: 5 μL of 4×TR beta/alfa-LBD; purchased Invitrogen PV4687
Description: LanthaScreen TR-FRET Thyroid Receptor alfa Coactivator Assay (in vitro binding activity). The note with it: TR alfa-LBD. The method, then: (§1) 2. Detection of the Binding Activity of the Compound of the Present Invention to TRα or TRβ In Vitro
(§2) Test Materials • LanthaScreen TR-FRET Thyroid Receptor beta Coactivator Assay kit was purchased from Invitrogen, Cat. No. PV4686; • LanthaScreen TR-FRET Thyroid Receptor alfa Coactivator Assay kit was purchased from Invitrogen, Cat. No. PV4687.
(§3) The method was experimented with LanthaScreen TR-FRET Thyroid Receptor beta/alfa Coactivator Assay kit. The test compound was dissolved in DMSO and diluted 3 times to a total of 10 concentrations, and then diluted with TR-FRET Coregulator Buffer C in the kit to form a solution containing 2% DMSO, 10 μL of the solution containing 2% DMSO was taken into a 384-well plate, then 5 μL of 4×TR beta/alfa-LBD, 5 μL of a mixture containing 0.4 μM fluorescein-SRC2-2 and 8 nM Tb anti-GST antibody were added into each well, mixed thoroughly, and incubated at room temperature for 1 h in the dark. After 1 h, BMG LABTECH's PHERAstar FSX microplate reader was used to read the fluorescence value (RFU) at […]. The TR-FRET ratio was calculated by dividing the emission signal at 520 nm by the emission signal at 495 nm. Graph Pad Prism 5 software was used to draw the curve and calculate the EC50 value. The in vitro binding activity test results of some of the compounds of the examples of the present invention are shown in Table 1 below.
(In general: In TR-FRET formats the signal depends on donor and acceptor labels being close together.)

The next test concerns the target T2, TRβ (Homo sapiens, UniProt P10828).
T2 construct: 5 μL of 4×TR beta/alfa-LBD; purchased Invitrogen PV4686
T2 sequence (P10828 217-461 limits assumed): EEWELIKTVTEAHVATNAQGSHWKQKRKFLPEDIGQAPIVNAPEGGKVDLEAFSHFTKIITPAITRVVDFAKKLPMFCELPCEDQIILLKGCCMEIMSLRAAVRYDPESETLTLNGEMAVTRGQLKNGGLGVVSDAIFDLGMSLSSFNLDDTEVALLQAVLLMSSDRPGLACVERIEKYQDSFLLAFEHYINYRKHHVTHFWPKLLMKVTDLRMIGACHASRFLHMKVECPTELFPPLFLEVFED
Kind of test: LanthaScreen TR-FRET Thyroid Receptor beta Coactivator Assay (in vitro binding activity). The note with it: TR beta-LBD. The procedure:
as §1, §2, §3

Some results are limits rather than exact numbers.

T1 sequence (P10827 163-410 isoform P10827-2 limits assumed, other chains not shown): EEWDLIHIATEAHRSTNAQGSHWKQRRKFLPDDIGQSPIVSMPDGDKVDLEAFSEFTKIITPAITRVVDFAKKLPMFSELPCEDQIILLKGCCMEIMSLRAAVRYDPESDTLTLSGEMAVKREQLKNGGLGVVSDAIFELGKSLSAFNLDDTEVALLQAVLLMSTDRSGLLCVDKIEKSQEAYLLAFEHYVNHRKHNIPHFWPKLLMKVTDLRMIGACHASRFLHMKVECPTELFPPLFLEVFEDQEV

In the case of `N#Cc1nn(-c2cc(Cl)c(Oc3ccc4c(c3)CCN(COCC(F)(F)F)C4=O)c(Cl)c2)c(=O)[nH]c1=O` [Example 14, 2-(3,5-Dichloro-4-((1-oxo-2-((2,2,2-trifluoroethoxy)methyl)-1,2,3,4-tetrahydroisoquinolin-6-yl)oxy)phenyl)-3,5-dioxo-2,3,4,5-tetrahydro-1,2,4-triazine-6-carbonitrile], the values for the EC50 at TRα and at TRβ were 0.226 µM and 0.03 µM, respectively.
Take `N#Cc1nn(-c2cc(Cl)c(Oc3ccc4c(c3)CCN(Cc3ccccc3)C4=O)c(Cl)c2)c(=O)[nH]c1=O` [Example 18, 2-(4-((2-Benzyl-1-oxo-1,2,3,4-tetrahydroisoquinolin-6-yl)oxy)-3,5-dichlorophenyl)-3,5-dioxo-2,3,4,5-tetrahydro-1,2,4-triazine-6-carbonitrile]: the EC50 at TRα was above 100 µM; at TRβ, 0.192 µM.
Regarding `N#Cc1nn(-c2cc(Cl)c(Oc3ccc4c(c3)CCN(Cc3ccc(F)c(F)c3)C4=O)c(Cl)c2)c(=O)[nH]c1=O` [Example 30d, 2-(3,5-dichloro-4-((2-(3,4-difluorobenzyl)-1-oxo-1,2,3,4-tetrahydroisoquinolin-6-yl)oxy)phenyl)-3,5-dioxo-2,3,4,5-tetrahydro-1,2,4-triazine-6-carbonitrile], the values for the EC50 at TRα and on TRβ were above 100 µM and 0.065 µM, respectively.
The like results for `N#Cc1nn(-c2cc(Cl)c(Oc3ccc4c(=O)[nH]ccc4c3)c(Cl)c2)c(=O)[nH]c1=O` [Example 19, 2-(3,5-Dichloro-4-((1-oxo-1,2-dihydroisoquinolin-6-yl)oxy)phenyl)-3,5-dioxo-2,3,4,5-tetrahydro-1,2,4-triazine-6-carbonitrile] were, in that order, above 100 µM and 0.501 µM.
For the compound `N#Cc1nn(-c2cc(Cl)c(Oc3ccc4c(c3)CCN(c3ccccn3)C4=O)c(Cl)c2)c(=O)[nH]c1=O` [Example 47f, 2-(3,5-dichloro-4-((1-oxo-2-(pyridin-2-yl)-1,2,3,4-tetrahydroisoquinolin-6-yl)oxy)phenyl)-3,5-dioxo-2,3,4,5-tetrahydro-1,2,4-triazine-6-carbonitrile], the EC50 on TRα was above 100 µM; at TRβ it was 0.214 µM.
`N#Cc1nn(-c2cc(Cl)c(Oc3ccc4c(c3)C(=O)NCC4)c(Cl)c2)c(=O)[nH]c1=O` [Example 9, 2-(3,5-dichloro-4-((1-oxo-1,2,3,4-tetrahydroisoquinolin-7-yl)oxy)phenyl)-3,5-dioxo-2,3,4,5-tetrahydro-1,2,4-triazine-6-carbonitrile]: the EC50 on TRα was above 100 µM; at TRβ it was above 10 µM.
`O=C1c2ccc(Oc3c(Cl)cc(-n4ncc(=O)[nH]c4=O)cc3Cl)cc2CCN1Cc1ccccc1F` [Example 33, 2-(3,5-dichloro-4-((2-(2-fluorobenzyl)-1-oxo-1,2,3,4-tetrahydroisoquinolin-6-yl)oxy)phenyl)-1,2,4-triazine-3,5(2H,4H)-dione]: the EC50 on TRα amounted to 0.156 µM; at TRβ, 0.017 µM.
As for `N#Cc1nn(-c2cc(Cl)c(Oc3ccc4c(c3)CCN(CC3CC3)C4=O)c(Cl)c2)c(=O)[nH]c1=O` [Example 38, 2-(3,5-dichloro-4-((2-(cyclopropylmethyl)-1-oxo-1,2,3,4-tetrahydroisoquinolin-6-yl)oxy)phenyl)-3,5-dioxo-2,3,4,5-tetrahydro-1,2,4-triazine-6-carbonitrile], the values for the EC50 at TRα and at TRβ were below 0.046 µM and below 0.0046 µM, respectively.
Regarding `O=C1c2ccc(Oc3c(Cl)cc(-n4ncc(=O)[nH]c4=O)cc3Cl)cc2CCN1Cc1ccc(F)c(F)c1` [Example 30, 2-(3,5-dichloro-4-((2-(3,4-difluorobenzyl)-1-oxo-1,2,3,4-tetrahydroisoquinolin-6-yl)oxy)phenyl)-1,2,4-triazine-3,5(2H,4H)-dione], the EC50 on TRα was determined as 0.093 µM; at TRβ, 0.0062 µM.
The like results for `N#Cc1nn(-c2cc(Cl)c(Oc3ccc4c(c3)CCN(CC3CCOCC3)C4=O)c(Cl)c2)c(=O)[nH]c1=O` [Example 12, 2-(3,5-Dichloro-4-((1-oxo-2-((tetrahydro-2H-pyran-4-yl)methyl)-1,2,3,4-tetrahydroisoquinolin-6-yl)oxy)phenyl)-3,5-dioxo-2,3,4,5-tetrahydro-1,2,4-triazine-6-carbonitrile] were, in that order, 0.451 µM and 0.021 µM.
Taken in the same sequence, the figures for `O=C1NCCc2cc(Oc3c(Cl)cc(-n4ncc(=O)[nH]c4=O)cc3Cl)ccc21` [Example 17, 2-(3,5-Dichloro-4-((1-oxo-1,2,3,4-tetrahydroisoquinolin-6-yl)oxy)phenyl)-1,2,4-triazine-3,5(2H,4H)-dione] were 0.311 µM and 0.034 µM.
In the case of `N#Cc1nn(-c2cc(Cl)c(Oc3ccc4c(c3)CCCNC4=O)c(Cl)c2)c(=O)[nH]c1=O` [Example 7, 2-(3,5-Dichloro-4-((1-oxo-2,3,4,5-tetrahydro-2H-benzo[c]azepin-7-yl)oxy)phenyl)-3,5-dioxo-2,3,4,5-tetrahydro-1,2,4-triazine-6-carbonitrile], the concentration giving a half-maximal response (EC50) at TRα was determined as 0.95 µM; on TRβ, 0.092 µM.
In the case of `CCN1CCc2cc(Oc3c(Cl)cc(-n4nc(C#N)c(=O)[nH]c4=O)cc3Cl)ccc2C1=O` [Example 5, 2-(3,5-dichloro-4-((2-ethyl-1-oxo-1,2,3,4-tetrahydroisoquinolin-6-yl)oxy)phenyl)-3,5-dioxo-2,3,4,5-tetrahydro-1,2,4-triazine-6-carbonitrile], the EC50 at TRα came out at 0.074 µM; on TRβ, 0.014 µM.
Consider `CCOC(C)N1CCc2cc(Oc3c(Cl)cc(-n4nc(C#N)c(=O)[nH]c4=O)cc3Cl)ccc2C1=O` (centres unmarked) [Example 16, 2-(3,5-dichloro-4-((2-(1-ethoxyethyl)-1-oxo-1,2,3,4-tetrahydroisoquinolin-yl)oxy)phenyl)-3,5-dioxo-2,3,4,5-tetrahydro-1,2,4-triazine-6-carbonitrile], for which the EC50 on TRα came to 0.211 µM; at TRβ, 0.022 µM.
Taken in the same sequence, the figures for `N#Cc1nn(-c2cc(Cl)c(Oc3ccc4c(c3)CCN(c3ccc(F)cc3)C4=O)c(Cl)c2)c(=O)[nH]c1=O` [Example 28g] were above 100 µM and 0.128 µM.
The like results for `O=C1c2ccc(Oc3c(Cl)cc(-n4ncc(=O)[nH]c4=O)cc3Cl)cc2CCN1c1ccccn1` [Example 47] were, in that order, 0.161 µM and 0.039 µM.
`N#Cc1nn(-c2cc(Cl)c(Oc3ccc4c(c3)CCN(CO)C4=O)c(Cl)c2)c(=O)[nH]c1=O` [Example 39, 2-(3,5-dichloro-4-((2-(hydroxymethyl)-1-oxo-1,2,3,4-tetrahydroisoquinolin-6-yl)oxy)phenyl)-3,5-dioxo-2,3,4,5-tetrahydro-1,2,4-triazine-6-carbonitrile]: the EC50 on TRα is above 100 µM; on TRβ, 0.472 µM.
Taken in the same sequence, the figures for `Cc1ccc(CN2CCc3cc(Oc4c(Cl)cc(-n5nc(C#N)c(=O)[nH]c5=O)cc4Cl)ccc3C2=O)cc1` [Example 21d, 2-(3,5-dichloro-4-((2-(4-methylbenzyl)-1-oxo-1,2,3,4-tetrahydroisoquinolin-6-yl)oxy)phenyl)-3,5-dioxo-2,3,4,5-tetrahydro-1,2,4-triazine-6-carbonitrile] were above 100 µM and 0.368 µM.
For `O=C1c2ccc(Oc3c(Cl)cc(-n4ncc(=O)[nH]c4=O)cc3Cl)cc2CCN1Cc1ccc(F)c(Cl)c1` [Example 35, 2-(3,5-dichloro-4-((2-(3-chloro-4-fluorobenzyl)-1-oxo-1,2,3,4-tetrahydroisoquinolin-6-yl)oxy)phenyl)-1,2,4-triazine-3,5(2H,4H)-dione], the EC50 is 0.092 µM on TRα and below 0.0046 µM at TRβ.
Consider `O=C1c2ccc(Oc3c(Cl)cc(-n4ncc(=O)[nH]c4=O)cc3Cl)cc2CCN1Cc1ccccc1` [Example 22, 2-(4-((2-benzyl-1-oxo-1,2,3,4-tetrahydroisoquinolin-6-yl)oxy)-3,5-dichlorophenyl)-1,2,4-triazine-3,5(2H,4H)-dione], for which the results for the EC50 at TRα and at TRβ were 0.156 µM and 0.011 µM, respectively.
Take `N#Cc1nn(-c2cc(Cl)c(Oc3ccc4c(c3)CCN(c3cccnc3)C4=O)c(Cl)c2)c(=O)[nH]c1=O` [Example 49f, 2-(3,5-dichloro-4-((1-oxo-2-(pyridin-3-yl)-1,2,3,4-tetrahydroisoquinolin-6-yl)oxy)phenyl)-3,5-dioxo-2,3,4,5-tetrahydro-1,2,4-triazine-6-carbonitrile]: the results for the EC50 on TRα and on TRβ were above 100 µM and 0.769 µM, respectively.
As for `O=C1c2ccc(Oc3c(Cl)cc(-n4ncc(=O)[nH]c4=O)cc3Cl)cc2CCN1c1ncccn1` [Example 50, 2-(3,5-dichloro-4-((1-oxo-2-(pyrimidin-2-yl)-1,2,3,4-tetrahydroisoquinolin-6-yl)oxy)phenyl)-1,2,4-triazine-3,5(2H,4H)-dione], the results for the EC50 on TRα and at TRβ were 0.274 µM and 0.12 µM, respectively.
